≈ marks a conversion by molar mass, not a printed value.
| Compound | logP | further results |
| --- | --- | --- |
| CCCCOCCOCCOCc1cc2c(cc1CCC)OCO2 | 4.75 | solubility (25 °C): 42.2 µM (≈ 14.3 µg/mL) |
| O=C(Nc1ccccc1)Nc1ccnc(Cl)c1 | 3.2 |  |
| CC1(C)C(C=C(Cl)Cl)C1C(=O)OC(C#N)c1ccc(F)c(Oc2ccccc2)c1 (stereo not drawn) |  | solubility (20 °C): 0.00691 µM (≈ 0.003 µg/mL) |
| Cc1ccc(N(SC(F)(Cl)Cl)S(=O)(=O)N(C)C)cc1 | 3.9 | solubility (20 °C): 2.59 µM (≈ 0.9 µg/mL) |
| COc1cc(OC)nc(NC(=O)NS(=O)(=O)c2c(-c3nnn(C)n3)cnn2C)n1 | 0.65 | solubility (pH 7.0, 20 °C): 2470 µM (≈ 1050 µg/mL) |
| CCCCOC(=O)C1(O)c2ccccc2-c2ccccc21 | 3.7 |  |
| CC(C)OC(=O)c1cc(C(=O)OC(C)C)cc([N+](=O)[O-])c1 |  | solubility (20 °C): 9.14 µM (≈ 2.7 µg/mL) |
| CCSCc1ccccc1OC(=O)NC | 2.04 |  |
| O=c1c2cc(F)ccc2nc(-n2cncn2)n1-c1ccc(Cl)cc1Cl |  | logD (pH 5.6): 3.24 |
| O=C(Nc1ccc(F)cc1F)c1cccnc1Oc1cccc(C(F)(F)F)c1 |  | solubility (25 °C): < 0.127 µM |
| CCCN(CC)CC1COC2(CCC(C(C)(C)C)CC2)O1 (stereo not drawn) |  | solubility (pH 7.0, 20 °C): 1580 µM (≈ 470 µg/mL) |
| CC(C)(C)N(NC(=O)c1ccc(Cl)cc1)C(=O)c1ccccc1 | 3.22 | solubility: 36.3 µM (≈ 12 µg/mL) |
| CCCN(CCC)c1c([N+](=O)[O-])cc(C(F)(F)F)c(N)c1[N+](=O)[O-] | 4.1 |  |
| COC(=O)C(C)Oc1ccc(Oc2ncc(C(F)(F)F)cc2Cl)cc1 (stereo not drawn) | 4.07 |  |
| CCSCCSP(=S)(OC)OC | 3.15 |  |
| O=C(NC(=O)c1ccccc1Cl)Nc1ccc(OC(F)(F)F)cc1 | 4.91 | solubility (20 °C): 0.0697 µM (≈ 0.025 µg/mL) |
| CCOC(=O)C(Cl)Cc1cc(-n2nc(C)n(C(F)F)c2=O)c(F)cc1Cl (stereo not drawn) | 3.36 | solubility (25 °C): 53.4 µM (≈ 22 µg/mL) |
| COc1nc(C)nc(NC(=O)NS(=O)(=O)c2ccccc2OCCCl)n1 |  | logD (pH 5.0): 1.1; solubility (pH 5.0, 25 °C): 79.6 µM (≈ 32 µg/mL) |
| CS(=O)(=O)c1cc(C(F)(F)F)ccc1C(=O)c1cnoc1C1CC1 | 2.32 | solubility (pH 5.5, 20 °C): 17.3 µM (≈ 6.2 µg/mL) |
| COc1cc(OC)nc(Oc2cccc(Oc3nc(OC)cc(OC)n3)c2C(=O)[O-])n1.[Na+] | -1.03 |  |
| CCCSP(=S)(OCC)Oc1ccc(SC)cc1 (stereo not drawn) | 5.48 |  |

| Compound | logP | further results |
| --- | --- | --- |
| COc1cc(OC)nc(N=C(O)NS(=O)(=O)N(C)S(C)(=O)=O)n1 | 1.63 |  |
| CCOC(=O)C1=NN(c2ccc(Cl)cc2Cl)C(C)(C(=O)OCC)C1 (stereo not drawn) | 3.83 | solubility (pH 6.2, 20 °C): 53.6 µM (≈ 20 µg/mL) |
| COP(N)(=O)SC (stereo not drawn) | -0.8 |  |
| CNC(=O)Oc1cc(C)cc(C)c1 |  | solubility (20 °C): 2620 µM (≈ 470 µg/mL) |
| CC1(C)OC(c2ccco2)CN1C(=O)C(Cl)Cl (stereo not drawn) | 2.12 | solubility (20 °C): 708 µM (≈ 197 µg/mL) |
| CCCC(=NOCC)C1=C(O)CC(C2CCCSC2)CC1=O (stereo not drawn) |  | solubility (20 °C): 123 µM (≈ 40 µg/mL) |
| CC(C)(C)[C@H](O)/C(=C\c1ccc(Cl)cc1)n1cncn1 |  | solubility (25 °C): 28.8 µM (≈ 8.41 µg/mL) |
| COc1cc(OC)nc(N=C(O)NS(=O)(=O)c2c(Cl)nc3ccccn23)n1 |  | solubility (pH 5.1, 25 °C): 16.3 µM (≈ 6.72 µg/mL) |
| CCNc1nc(Cl)nc(NC(C)(C)C)n1 | 3.21 | solubility (pH 7.0, 20 °C): 39.6 µM (≈ 9.09 µg/mL) |
| CCN(CC)C(=O)n1cnc(S(=O)(=O)c2c(C)cc(C)cc2C)n1 | 3.21 |  |
| CCS(=O)(=O)c1nc2ccccn2c1S(=O)(=O)NC(=O)Nc1nc(OC)cc(OC)n1 |  | solubility (pH 5.0, 20 °C): 38.1 µM (≈ 17.9 µg/mL) |
| CCC1(CC2(c3cccc(Cl)c3)CO2)C(=O)c2ccccc2C1=O (stereo not drawn) |  | solubility (25 °C): 41.1 µM (≈ 14 µg/mL) |
| C=CCC1=C(C)C(OC(=O)C2C(C=C(C)C)C2(C)C)CC1=O (stereo not drawn) |  | solubility (25 °C): 15.2 µM (≈ 4.6 µg/mL) |
| O=C(NC(=O)c1c(F)cccc1F)Nc1ccc(Cl)c(Oc2ncc(C(F)(F)F)cc2Cl)c1 |  | solubility (25 °C): < 0.0395 µM |
| C=C(C)CN(CC)c1c([N+](=O)[O-])cc(C(F)(F)F)cc1[N+](=O)[O-] |  | solubility (pH 7.0, 25 °C): 0.735 µM (≈ 0.245 µg/mL) |
| O=C1c2ccccc2C(=O)N1SC(Cl)(Cl)Cl |  | solubility (25 °C): 2.7 µM (≈ 0.8 µg/mL) |
| CCNc1nc(Cl)nc(N(CC)CC)n1 |  | solubility (25 °C): 87.1 µM (≈ 20 µg/mL) |
| Clc1cccc(C(Cl)(Cl)Cl)n1 |  | solubility (25 °C): 233 µM (≈ 53.7 µg/mL) |
| CCOc1ccc([Si](C)(C)CCCc2ccc(F)c(Oc3ccccc3)c2)cc1 | 8.2 |  |
| COc1cccc(C(=O)NN(C(=O)c2cc(C)cc(C)c2)C(C)(C)C)c1C | 3.7 | solubility: < 2.71 µM |
| COc1cc(OC)nc(NC(=O)NS(=O)(=O)c2ncccc2C(=O)N(C)C)n1 | 0.01 |  |

| Compound | logP | further results |
| --- | --- | --- |
| Cc1cc(C2CC2)nc(Nc2ccccc2)n1 | 4 |  |
| CCc1nn(C)c(C(=O)NCc2ccc(C(C)(C)C)cc2)c1Cl | 4.61 |  |
| CCSC(=O)COc1ccc(Cl)cc1C | 4.05 |  |
| CN=C(O)/C(=N/OC)c1ccccc1Oc1ccccc1 | 2.32 |  |
| CS/C(C)=N/OC(=O)N(C)SN(C)C(=O)O/N=C(\C)SC |  | solubility (25 °C): 72.9 µM (≈ 25.8 µg/mL) |
| COP(=O)(OC)OC1=C(Cl)C2C=CCC12 (stereo not drawn) | 2.32 |  |
| CC(C)C1(C)N=C(c2nc3ccccc3cc2C(=O)O)NC1=O (stereo not drawn) |  | solubility (25 °C): 289 µM (≈ 90 µg/mL) |
| CCOC(=O)C1(C)OC(=O)N(c2cc(Cl)cc(Cl)c2)C1=O (stereo not drawn) | 3.15 |  |
| CNC(=O)N(C)c1nnc(C(C)(C)C)s1 |  | solubility (25 °C): 10500 µM (≈ 2400 µg/mL) |
| CC(C)(COCc1cccc(Oc2ccccc2)c1)c1ccc(OC(F)(F)Br)cc1 |  | solubility (25 °C): 0.000105 µM (≈ 5e-05 µg/mL) |
| COCc1cnc(C2=NC(C)(C(C)C)C(=O)N2)c(C(=O)O)c1 (stereo not drawn) | 0.73 |  |
| Cc1ccn2nc(S(=O)(=O)Nc3c(F)cccc3F)nc2n1 |  | solubility (pH 2.5): 150 µM (≈ 48.7 µg/mL) |
| CCCCOCC(C)OC(=O)COc1nc(F)c(Cl)c(N)c1Cl (stereo not drawn) | 4.17 |  |
| CC(C)Oc1cccc(NC(=O)c2ccccc2C(F)(F)F)c1 |  | solubility (20 °C): 24.4 µM (≈ 7.88 µg/mL) |
| CCCSC(=O)N(CCC)CCC | 3.84 | solubility (20 °C): 443 µM (≈ 90 µg/mL) |
| CN(C)S(=O)(=O)N(SC(F)(Cl)Cl)c1ccccc1 | 3.7 |  |
| CCN(CC)c1nc(C)cc(OP(=S)(OC)OC)n1 |  | solubility (pH 7.3, 20 °C): 45.5 µM (≈ 13.9 µg/mL) |
| CC(Oc1ccc(Oc2ncc(C(F)(F)F)cc2Cl)cc1)C(=O)O (stereo not drawn) |  | solubility (pH 2.6, 25 °C): 120 µM (≈ 43.4 µg/mL) |
| O=C(O)Cn1c(=O)sc2cccc(Cl)c21 | 1.34 |  |
| CC1=NNC(=O)N(/N=C/c2cccnc2)C1 | -0.18 | solubility (25 °C): 1340 µM (≈ 290 µg/mL) |
| CCNP(=S)(OC)O/C(C)=C/C(=O)OC(C)C (stereo not drawn) | 3.82 |  |

| Compound | logP | further results |
| --- | --- | --- |
| CC1(C)[C@H](/C=C(\Cl)C(F)(F)F)[C@@H]1C(=O)O[C@H](C#N)c1cccc(Oc2ccccc2)c1 | 6.8 |  |
| COC(=O)c1c(C(F)F)nc(C(F)(F)F)c(C2=NCCS2)c1CC(C)C | 3.89 |  |
| C#CCOc1cc(-n2nc3n(c2=O)CCCC3)c(Cl)cc1Cl |  | solubility (pH 7.0): 47.3 µM (≈ 16 µg/mL) |
| C[Si](Cn1cncn1)(c1ccc(F)cc1)c1ccc(F)cc1 |  | solubility (pH 7.2, 20 °C): 171 µM (≈ 54 µg/mL) |
| CNC(=O)CSP(=O)(OC)OC | -0.74 |  |
| CN(C(O)=NC(C)(C)c1ccccc1)c1ccccc1 | 3.01 |  |
| COC(=O)c1c(Cl)c(Cl)c(C(=O)OC)c(Cl)c1Cl | 4.28 | solubility (25 °C): 1.51 µM (≈ 0.5 µg/mL) |
| CCOP(=O)(SC(C)CC)SC(C)CC (stereo not drawn) | 3.9 | solubility (25 °C): 917 µM (≈ 248 µg/mL) |
| CCOP(=S)(OCC)Oc1ncn(-c2ccccc2)n1 | 3.34 | solubility (pH 7.0, 20 °C): 99.2 µM (≈ 31.1 µg/mL) |
| CCOc1nc(C(Cl)(Cl)Cl)ns1 | 3.37 | solubility (25 °C): 473 µM (≈ 117 µg/mL) |
| C=CCCCOC(=O)C(CC)N(Cc1ccco1)C(=O)n1ccnc1 (stereo not drawn) | 3 |  |
| O=CNC(N1CCN(C(NC=O)C(Cl)(Cl)Cl)CC1)C(Cl)(Cl)Cl (stereo not drawn) | 2.2 |  |
| O=C(Nc1ccc(Cl)c(Cl)c1)Nc1cc(Cl)ccc1Oc1ccc(Cl)cc1S(=O)(=O)[O-].[Na+] | 1.89 |  |
| CSC(=O)c1cccc2nnsc12 | 3.1 | solubility (25 °C): 36.6 µM (≈ 7.7 µg/mL) |
| C[C@H](Oc1ccc(Oc2nc3ccc(Cl)cc3o2)cc1)C(=O)O |  | solubility (pH 5.1, 20 °C): 809 µM (≈ 270 µg/mL) |
| CCOCCOC(=O)C(C)Oc1ccc(Oc2ncc(C(F)(F)F)cc2Cl)cc1 (stereo not drawn) |  | solubility (20 °C): 1.34 µM (≈ 0.58 µg/mL) |
| CN(C)NC(=O)CCC(=O)O | -1.5 |  |
| CC(C)OC(=O)[C@@H](C)N(C(=O)c1ccccc1)c1ccc(F)c(Cl)c1 | 3.69 |  |
| C[N+]1(C)CCCCC1.[Cl-] |  | logD (pH 7.0): -2.82 |
| CCOC(=O)CSc1nc(C(C)(C)C)nn1C(=O)N(C)C | 2.69 | solubility (pH 7.0, 25 °C): 1380 µM (≈ 433 µg/mL) |

— the OPERA property sets (Mansouri et al. 2018)
